Assays:
[1] = LogD determination, miniaturized shake flask method; format: physicochemical; conditions: octanol/buffer (1:1); octanol/buffer pH 7.4 (1:1), 66.6 μM
Protocol: The distribution of AGAL between an organic solvent (octanol) and aqueous buffer (pH 7.4) was tested using the miniaturized shake flask method in octanol/buffer (1:1). This was accomplished by spiking the test compound (prepared in DMSO) into pre-equilibrated octanol/buffer phases at a concentration of 66.6 μM followed by shaking at 880 rpm for 1 h. The concentration of the test compound in both phases was analyzed using LC–MS/MS.

[2] = Plasma stability study, mouse; format: in vitro ADME
Protocol: Briefly, plasma stability was assessed by incubating compounds in the presence of human (pooled) and mouse (pooled) plasma (Bioreclamation, Westbury, NY, USA). All chemicals and reagents including control compounds were purchased from commercial sources such as Sigma-Aldrich or Toronto Research Chemicals. Plasma incubations were conducted by placing plasma (95 μL) in a 96-well microtiter plate and warming to 37 °C for 5 min. The reaction was initiated with the addition of the test article (5 μL of 20 μM), totaling 100 μL in incubation volume. At 0, 15, 30, 60, and 120 min time points, the reactions were terminated with the addition of acetonitrile-containing carbutamide (as an internal standard). The terminated samples were then centrifuged at 2 °C to pellet the protein, and the supernatant was injected onto an LC–MS. The test article was monitored for loss over time and the t1/2 was determined.

CYP2D6 = biological target: T1, CYP2D6 (Homo sapiens, UniProt P10635); experiment: Reversible CYP inhibition in pooled HLMs; format: in vitro ADME; conditions: 30 µM compound, substrate dextromethorphan
T1 construct: from tissue; host or cells: pooled human liver microsomes (n = 200)
Protocol: (§1) All chemicals and reagents including control compounds were purchased from commercial sources such as Sigma-Aldrich or Toronto Research Chemicals. The test article was tested for reversible inhibition of CYPs in human liver microsomes (HLM) (0.2 mg/mL protein) at a concentration range of 0–30 μM. Each condition was incubated in duplicate. The test article (0–30 μM), NADPH, and the CYP-selective probe substrate were incubated in a 96-well plate at 37 °C in 0.1 M potassium phosphate buffer, pH 7.4. The reactions were initiated by adding the HLMs. The total reaction volume was 100 μL.
(§2) After the incubation period (10 min for CYP1A2, 2B6, and 2C9; 15 min for CYP2C19; and 4 min for CYP2C8 and 2D6 to accommodate linear kinetic conditions) at 37 °C, the reactions were terminated by the addition of 100 μL of ice-cold acetonitrile-containing carbutamide as an IS, then centrifuged at 2500× g for 10 min at 2 °C. A 150 μL aliquot of supernatant for each CYP assay, except for CYP1A2, was then transferred to a new plate for analysis. For CYP1A2, 80 μL of supernatant was transferred to the plate and further diluted with 80 μL of water before analysis. All samples were analyzed with liquid chromatography with tandem mass spectrometry (LC–MS/MS).

CYP2C8 = biological target: T2, CYP2C8 (Homo sapiens, UniProt P10632); experiment: Reversible CYP inhibition in pooled HLMs; format: in vitro ADME; conditions: 30 µM compound, substrate amodiaquine
T2 construct: from tissue; host or cells: pooled human liver microsomes (n = 200)
T2 sequence (P10632 1-490): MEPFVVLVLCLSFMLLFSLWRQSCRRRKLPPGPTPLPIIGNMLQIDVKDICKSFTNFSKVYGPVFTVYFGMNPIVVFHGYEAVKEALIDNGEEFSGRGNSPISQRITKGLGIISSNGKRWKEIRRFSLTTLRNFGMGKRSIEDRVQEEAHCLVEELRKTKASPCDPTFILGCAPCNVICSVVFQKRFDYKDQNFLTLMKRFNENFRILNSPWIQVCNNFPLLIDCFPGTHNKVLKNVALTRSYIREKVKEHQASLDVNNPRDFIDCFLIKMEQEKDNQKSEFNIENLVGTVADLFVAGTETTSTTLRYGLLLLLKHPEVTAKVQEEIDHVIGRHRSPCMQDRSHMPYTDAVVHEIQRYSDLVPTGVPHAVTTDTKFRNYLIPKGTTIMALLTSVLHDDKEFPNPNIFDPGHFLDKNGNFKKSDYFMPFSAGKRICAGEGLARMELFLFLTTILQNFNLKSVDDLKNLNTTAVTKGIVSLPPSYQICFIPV
Protocol: as §1, §2

CYP1A2 = biological target: T3, CYP1A2 (Homo sapiens, UniProt P05177); experiment: Reversible CYP inhibition in pooled HLMs; format: in vitro ADME; conditions: 30 µM compound, substrate phenacetin
T3 construct: from tissue; host or cells: pooled human liver microsomes (n = 200)
T3 sequence (P05177 1-516): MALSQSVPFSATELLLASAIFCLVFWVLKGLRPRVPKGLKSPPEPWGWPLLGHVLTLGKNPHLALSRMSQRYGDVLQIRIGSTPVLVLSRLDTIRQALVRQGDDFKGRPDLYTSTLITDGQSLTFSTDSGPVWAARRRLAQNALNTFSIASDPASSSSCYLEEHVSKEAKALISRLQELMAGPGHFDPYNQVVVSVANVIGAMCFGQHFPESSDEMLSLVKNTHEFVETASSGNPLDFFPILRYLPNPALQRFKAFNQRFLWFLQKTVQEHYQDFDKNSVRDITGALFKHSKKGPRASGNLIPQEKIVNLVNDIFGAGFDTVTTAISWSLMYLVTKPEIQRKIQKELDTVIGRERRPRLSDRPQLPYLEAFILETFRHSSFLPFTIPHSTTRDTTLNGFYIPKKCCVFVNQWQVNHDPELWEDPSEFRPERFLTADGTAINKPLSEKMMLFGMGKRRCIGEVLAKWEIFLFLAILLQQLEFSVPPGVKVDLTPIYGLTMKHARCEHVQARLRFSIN
Protocol: as §1, §2

CYP2C19 = biological target: T4, CYP2C19 (Homo sapiens, UniProt P33261); experiment: Reversible CYP inhibition in pooled HLMs; format: in vitro ADME; conditions: 30 µM compound, substrate S-mephenytoin
T4 construct: from tissue; host or cells: pooled human liver microsomes (n = 200)
Protocol: as §1, §2

CYP2B6 = biological target: T5, CYP2B6 (Homo sapiens, UniProt P20813); experiment: Reversible CYP inhibition in pooled HLMs; format: in vitro ADME; conditions: 30 µM compound, substrate bupropion
T5 construct: from tissue; host or cells: pooled human liver microsomes (n = 200)
T5 sequence (P20813 1-491): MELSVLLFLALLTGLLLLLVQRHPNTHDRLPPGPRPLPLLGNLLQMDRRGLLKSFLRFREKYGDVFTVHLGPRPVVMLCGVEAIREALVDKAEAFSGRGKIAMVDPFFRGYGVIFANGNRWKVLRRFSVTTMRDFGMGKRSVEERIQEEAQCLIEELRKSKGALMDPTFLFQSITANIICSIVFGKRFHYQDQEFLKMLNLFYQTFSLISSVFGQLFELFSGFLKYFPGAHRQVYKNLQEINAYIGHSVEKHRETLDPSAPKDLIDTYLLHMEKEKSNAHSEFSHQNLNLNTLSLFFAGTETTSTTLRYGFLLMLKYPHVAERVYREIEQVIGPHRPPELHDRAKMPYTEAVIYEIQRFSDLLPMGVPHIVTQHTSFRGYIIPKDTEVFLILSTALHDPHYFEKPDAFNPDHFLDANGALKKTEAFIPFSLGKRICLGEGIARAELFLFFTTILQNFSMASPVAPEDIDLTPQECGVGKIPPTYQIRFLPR
Protocol: as §1, §2

T4 sequence (P33261 whole entry): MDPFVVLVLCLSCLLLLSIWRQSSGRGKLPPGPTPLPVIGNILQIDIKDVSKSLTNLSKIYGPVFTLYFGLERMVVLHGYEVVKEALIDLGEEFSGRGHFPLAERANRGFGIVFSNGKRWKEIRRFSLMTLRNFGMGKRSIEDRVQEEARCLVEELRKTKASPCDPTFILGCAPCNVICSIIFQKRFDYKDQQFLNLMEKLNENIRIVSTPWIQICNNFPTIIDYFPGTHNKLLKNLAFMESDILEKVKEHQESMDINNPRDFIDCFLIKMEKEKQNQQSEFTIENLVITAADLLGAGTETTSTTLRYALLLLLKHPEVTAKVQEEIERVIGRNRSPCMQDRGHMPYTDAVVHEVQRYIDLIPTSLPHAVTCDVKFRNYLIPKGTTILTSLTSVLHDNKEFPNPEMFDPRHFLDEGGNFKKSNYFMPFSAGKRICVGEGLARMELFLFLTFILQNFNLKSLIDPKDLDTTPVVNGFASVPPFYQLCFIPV
T1 sequence (P10635 whole entry): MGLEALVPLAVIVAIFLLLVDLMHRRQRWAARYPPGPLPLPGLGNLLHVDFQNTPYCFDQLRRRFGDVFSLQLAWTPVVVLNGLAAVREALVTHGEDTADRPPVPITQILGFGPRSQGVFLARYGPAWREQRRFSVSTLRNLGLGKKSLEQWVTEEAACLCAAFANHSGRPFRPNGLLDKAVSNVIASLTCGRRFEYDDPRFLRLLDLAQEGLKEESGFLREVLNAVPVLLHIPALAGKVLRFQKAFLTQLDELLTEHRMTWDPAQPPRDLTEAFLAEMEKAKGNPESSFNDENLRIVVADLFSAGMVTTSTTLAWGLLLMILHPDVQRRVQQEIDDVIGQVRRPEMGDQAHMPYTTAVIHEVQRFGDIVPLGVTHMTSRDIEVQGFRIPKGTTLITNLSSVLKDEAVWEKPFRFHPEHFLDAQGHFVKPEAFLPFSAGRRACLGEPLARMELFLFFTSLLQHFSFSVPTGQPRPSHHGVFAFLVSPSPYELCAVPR

SMILES: O=C(CCCCCCCn1cc(CCCF)nn1)N1[C@@H]2[C@H](O)[C@@H](O)[C@@H](O)[C@@H](CO)[C@@H]21 [AGAL]
- logD at 1 h [1]: -0.43
- Plasma Half-Life, t1/2 ([2]; 37 °C): 9.83 min
- parent remaining ([2]; 30 min post-incubation): 18%
- half-life at 1 µM ([2]; mouse, pooled plasma, 37 °C, read-out: Plasma Half-Life, t1/2): < 10 min
- reversible inhibition of CYP2D6 activity (CYP2D6): no significant loss of CYP activity
- reversible inhibition of CYP2C8 activity (CYP2C8): no significant loss of CYP activity
- reversible inhibition of CYP1A2 activity (CYP1A2): no significant loss of CYP activity
- reversible inhibition of CYP2C19 activity (CYP2C19): no significant loss of CYP activity
- reversible inhibition of CYP2B6 activity (CYP2B6): no significant loss of CYP activity
